The numbers were not newly measured in PMC7832358, “Trending Topics on Coumarin and Its Derivatives in 2020” (Molecules, 2021), which cites them from elsewhere.

Each structure is given as a SMILES string. pIC50: −log10 of the molar value.

Broadly, the pIC50 is the IC50 on a negative log10 scale, so that one unit is a factor of ten.

For data set [1], the target named is xanthine oxidase. On the set-up: method as in PMID 32574739. The settings on record: read-out: xanthine oxidase inhibition IC50.
For data set [2], the system named is B16F10 cells. Further details: method as in PMID 32574739.
Data set [3] deals with streptozotocin (STZ)-induced cognitive dysfunction in rats.
For data set [4] the test system is unchanged. The source holds these as a separate data set.
Data set [5] has as its system tyrosinase. Further details: method as in PMID 32652434.
Data set [6] deals with hA3 receptors. On the set-up: method as in PMID 31738058. The settings on record: antagonists.
Data set [7] relates to hMAO-B. The settings on record: read-out: hMAO-B inhibition IC50.
Data set [8] has as its system reserpinized mice. The settings on record: reserpinized mice pre-treated with levodopa and benserazide.
Details of data set [9]: method as in PMID 31887477. The settings on record: inhibitor of thioredoxin reductases (TrxRs); read-out: antitumor activity IC50.
For data set [10], the system named is Ebolavirus (EBOV). The settings on record: read-out: IC50 against EBOV.
In data set [11] the test system is Marburg virus (MARV). The settings on record: read-out: IC50 against MARV.

Turning to `COc1ccc(-c2cc3cc([N+](=O)[O-])ccc3oc2=O)cc1` [3-(4-methoxyphenyl)-6-nitrocoumarin], the pIC50 in [1] was 5.08. Moreover, the “cytotoxicity in B16F10 cells” value in [2] was “non-cytotoxic”.

Regarding `COc1c2occc2cc2ccc(=O)oc12` [xanthotoxin], the “cognitive deficits in the Morris water maze and object recognition tests” value in data set [3] is on record as “prevent cognitive deficits”. Besides, in data set [4], the “activity of hippocampal AChE” value is listed as “reduced”, the “expression of NF-κB inhibitor (IκB-α)” value is “upregulating”, the glutathione content result is “increasing” and the level of malondialdehyde entry is reported as “reduced”. Besides, the “level of proinflammatory cytokines” value in data set [4] was “reducing”.

Regarding `O=c1ccc2ccc(O)cc2o1` [umbelliferone], in [3], the “cognitive deficits in the Morris water maze and object recognition tests” value is given as “prevent cognitive deficits”. In addition, in data set [4], the “activity of hippocampal AChE” value is on record as “reduced”, the “expression of NF-κB inhibitor (IκB-α)” value was “upregulating”, the glutathione content result was “increasing” and the level of malondialdehyde entry is given as “reduced”. Moreover, in [4], the “level of proinflammatory cytokines” value was “reducing”; the “overexpression of inflammatory markers (nuclear factor κB and cyclooxygenase II)” value is given as “inhibiting”.

Take `O=c1cc(OCc2cn(Cc3cocc(O)c3=O)nn2)c2ccccc2o1` [compound XXVI]: the tyrosinase inhibitory activity entry in data set [5] is recorded as “sub-micromolar range”.

For `O=c1oc2c(O)cccc2cc1-c1ccc(Br)cc1` [compound XX], in [6], the hA3 receptor affinity entry is given as “low nanomolar range”.

For the compound `O=c1oc2cc(O)ccc2cc1-c1cc(Br)cs1` [3-(4′-bromothiophen-2′-yl)-7-hydroxycoumarin], the pIC50 in data set [7] was 6.85. The “in vivo profile on locomotor activity (OFT) versus selegiline” value in data set [8] is “slightly better in vivo profile than selegiline”.

Consider `CCN(CC)c1ccc2cc(/C=C/C(=O)c3ccc(OC)c(O)c3)c(=O)oc2c1` [compound V], for which, in data set [9], the pIC50 is 5.44.

Turning to `Cc1c(Cc2ccc(OC(F)(F)F)cc2)c(=O)oc2cc(OCC(O)CN3CCC(C(N)=O)CC3)ccc12` (stereo not shown) [compound XVI], the results for the pIC50 in data set [10] and in data set [11] were 6.30 and 5.92, respectively.
